This note sets out measurements from ChEMBL document CHEMBL1131741, “Design of scytalone dehydratase inhibitors as rice blast fungicides: (N-phenoxypropyl)-carboxamides” (Bioorg Med Chem Lett, 1999).

Molecules are shown by their SMILES. pKi: −log10 of the molar value. Converted amounts (≈) assume the structure as drawn.

For experiment [1], the target named is T1, Scytalone dehydratase (Magnaporthe oryzae (strain 70-15 / FGSC 8958) (Rice blast fungus)(Pyricularia oryzae), UniProt P56221).
T1 sequence (P56221 whole entry): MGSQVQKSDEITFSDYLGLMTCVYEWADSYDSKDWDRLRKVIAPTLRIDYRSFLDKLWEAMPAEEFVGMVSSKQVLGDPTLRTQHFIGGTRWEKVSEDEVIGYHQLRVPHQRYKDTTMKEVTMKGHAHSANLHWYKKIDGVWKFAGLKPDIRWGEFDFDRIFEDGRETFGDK

The next experiment has as its system rice. Briefly: Concentration that affords 90% control of blast disease on rice plants by multiple rate foliar rice blast assay. It is filed as functional.
The target in experiment [2] is T1, Scytalone dehydratase. The source holds these as a separate data set.

In general, pKi refers to −log10 of the Ki, conventionally taken in molar units. On Scytalone dehydratase [1], `CC(CCc1ccccc1)NC(=O)C(C#N)C(C)(C)C` (stereo not given) gave a pKi of 8.14. In addition, the ED90 in the experiment on rice is over 200 µg/mL. At Scytalone dehydratase [2], the “Adjusted Ki” value is reported as 1.8 nM.
At Scytalone dehydratase [1], `C[C@H](COc1ccccc1)NC(=O)c1cc(F)ccc1O` had a pKi of 9.36.
`C[C@H](COc1cc(F)ccc1F)NC(=O)[C@H](C#N)C(C)(C)C`: the pKi on Scytalone dehydratase [1] was 9.14. For the same compound, the ED90 with rice was determined as 6.2 µg/mL (≈ 20 µM). For the same compound, the “Adjusted Ki” value at Scytalone dehydratase [2] turned out to be 0.73 nM.
With `C[C@H](COc1cccc(F)c1)NC(=O)[C@@H](C#N)C(C)(C)C`, the pKi on Scytalone dehydratase [1] is 9.62. The compound also showed an ED90 in the experiment on rice of 25 µg/mL (≈ 85.5 µM). Also, the “Adjusted Ki” value on Scytalone dehydratase [2] worked out at 0.24 nM.
In the same order, the values of `C[C@H](COc1cc(F)ccc1F)NC(=O)C(C#N)C(C)(C)C` (stereo not given in full) are 10.38, 6.2 µg/mL (≈ 20 µM) and 0.021 nM.
`C[C@H](COc1ccccc1)NC(=O)[C@@H](C#N)C(C)(C)C` (stereo in doubt; 6f) [listing 1 of 2 here] gave a pKi at Scytalone dehydratase [1] of 9.24. In addition, at Scytalone dehydratase [2], the “Adjusted Ki” value turned out to be 0.58 nM.
For `CC[C@]1(C(=O)N[C@@H](C)COc2cc(F)ccc2F)C(C)C1(Cl)Cl` (stereo not given in full), the pKi at Scytalone dehydratase [1] is 7.48. The ED90 in the experiment on rice worked out at 100 µg/mL (≈ 273 µM). Moreover, on Scytalone dehydratase [2], the “Adjusted Ki” value is 16 nM.
`CC(COc1cccc(F)c1)NC(=O)[C@@H](C#N)C(C)(C)C` (stereo not given in full) had a pKi at Scytalone dehydratase [1] of 9.34. In the experiment with rice, this compound gave an ED90 of 25 µg/mL (≈ 85.5 µM). Further, the “Adjusted Ki” value on Scytalone dehydratase [2] amounted to 0.23 nM.
The matching figures for `CC(COc1ccccc1)NC(=O)C(C#N)C(C)(C)C` (stereo not given): 8.55, 200 µg/mL (≈ 729 µM) and 0.7 nM.
The matching figures for `CC[C@]1(C(=O)N[C@H](C)COc2cccc(F)c2)C(C)C1(Cl)Cl` (stereo not given in full): 9.96, 30 µg/mL (≈ 86.1 µM) and 0.057 nM.
Regarding `C[C@H](COc1ccccc1)NC(=O)[C@@H](C#N)C(C)(C)C` (stereo in doubt; 6f) [listing 2 of 2 here], in the experiment on rice, the ED90 is 25 µg/mL (≈ 91.1 µM).
`CC[C@]1(C(=O)NC(C)CCc2ccccc2)C(C)C1(Cl)Cl` (stereo not given in full) had a pKi at Scytalone dehydratase [1] of 9.08. In the experiment on rice, the ED90 was 30 µg/mL (≈ 91.4 µM). For the same compound, the “Adjusted Ki” value on Scytalone dehydratase [2] is 0.21 nM.
The matching figures for `C[C@@H](COc1cc(F)ccc1F)NC(=O)[C@@H](C#N)C(C)(C)C`: 8.11, over 200 µg/mL and 7.7 nM.
In the same order, the values of `CC[C@]1(C(=O)N[C@H](C)COc2ccc(F)cc2)C(C)C1(Cl)Cl` (stereo not given in full) are 9.66, 30 µg/mL (≈ 86.1 µM) and 0.11 nM.
In the same order, the values of `CC[C@]1(C(=O)NC(C)COc2ccccc2)C(C)C1(Cl)Cl` (stereo not given in full) are 9.42, 50 µg/mL (≈ 151 µM) and 0.094 nM.
At Scytalone dehydratase [1], `CC(COc1ccccc1F)NC(=O)C(C#N)C(C)(C)C` (stereo not given) gave a pKi of 9.62. In the experiment on rice, this compound came in with an ED90 of 50 µg/mL (≈ 171 µM). In addition, the “Adjusted Ki” value at Scytalone dehydratase [2] was determined as 0.059 nM.
For `C[C@H](COc1ccccc1)NC(=O)[C@@H](C#N)C(C)(C)C` (stereo in doubt; 6e) [listing 1 of 2 here], the pKi at Scytalone dehydratase [1] is 8.89. Besides, the “Adjusted Ki” value at Scytalone dehydratase [2] came out at 0.66 nM.
At Scytalone dehydratase [1], `CC[C@]1(C(=O)N[C@H](C)COc2ccccc2)C(C)C1(Cl)Cl` (stereo not given in full) showed a pKi of 9.77. The compound further came in with an ED90 in the experiment on rice of 30 µg/mL (≈ 90.8 µM). Further, at Scytalone dehydratase [2], the “Adjusted Ki” value stood at 0.0835 nM.
The matching figures for `CC[C@]1(C(=O)N[C@H](C)COc2cccc(F)c2F)C(C)C1(Cl)Cl` (stereo not given in full): 8.66, 100 µg/mL (≈ 273 µM) and 2.2 nM.
`CC(C)(C)C(C#N)C(=O)NCCCc1ccccc1` (stereo not given): the negative logarithm of the Ki (pKi) at Scytalone dehydratase [1] is 7.87. This compound also registered an ED90 with rice of 200 µg/mL (≈ 774 µM). The “Adjusted Ki” value on Scytalone dehydratase [2] is given as 6.8 nM.
In the same order, the values of `C[C@H](COc1ccccc1F)NC(=O)[C@@H](C#N)C(C)(C)C` are 10.10, 25 µg/mL (≈ 85.5 µM) and 0.08 nM.
In the same order, the values of `C[C@H](COc1ccccc1)NC(=O)[C@H](C#N)C(C)(C)C` are 7.18, over 200 µg/mL and 33 nM.
The matching figures for `C[C@H](COc1ccc(F)cc1)NC(=O)C(C#N)C(C)(C)C` (stereo not given in full): 8.77, 100 µg/mL (≈ 342 µM) and 0.83 nM.
`C[C@@H](COc1cc(F)ccc1F)NC(=O)[C@H](C#N)C(C)(C)C`: the pKi on Scytalone dehydratase [1] was 7.01. Further, in the experiment on rice, the ED90 is over 200 µg/mL. Also, the “Adjusted Ki” value on Scytalone dehydratase [2] is on record as 97 nM.
`C[C@H](COc1cccc(F)c1F)NC(=O)[C@@H](C#N)C(C)(C)C` showed a negative-log Ki (pKi) at Scytalone dehydratase [1] of 9.02. The compound further showed an ED90 in the experiment on rice of 25 µg/mL (≈ 80.6 µM). The “Adjusted Ki” value on Scytalone dehydratase [2] stood at 0.95 nM.
The matching figures for `CC[C@]1(C(=O)N[C@H](C)COc2ccccc2F)C(C)C1(Cl)Cl` (stereo not given in full): 9.43, 50 µg/mL (≈ 144 µM) and 0.19 nM.
The matching figures for `CC[C@]1(C(=O)NCCCc2ccccc2)C(C)C1(Cl)Cl` (stereo not given in full): 8.72, 30 µg/mL (≈ 95.5 µM) and 0.96 nM.
In the same order, the values of `CC[C@]1(C(=O)N[C@H](C)COc2cc(F)ccc2F)C(C)C1(Cl)Cl` (stereo not given in full) are 10.07, 6 µg/mL (≈ 16.4 µM) and 0.042 nM.
Regarding `CC[C@]1(C(=O)NCCOc2ccccc2)C(C)C1(Cl)Cl` (stereo not given in full), at Scytalone dehydratase [1], the pKi is 8.12. In the experiment with rice, this compound showed an ED90 of 200 µg/mL (≈ 632 µM). For the same compound, the “Adjusted Ki” value on Scytalone dehydratase [2] came out at 3.7 nM.
Regarding `C[C@H](COc1ccccc1)NC(=O)[C@@H](C#N)C(C)(C)C` (stereo in doubt; 6e) [listing 2 of 2 here], the ED90 in the experiment on rice was found to be 100 µg/mL (≈ 364 µM).
`C[C@H](COc1cc(F)ccc1F)NC(=O)[C@@H](C#N)C(C)(C)C` gave a pKi at Scytalone dehydratase [1] of 10.70. Further, the ED90 with rice was 0.8 µg/mL (≈ 2.58 µM). Further, the “Adjusted Ki” value at Scytalone dehydratase [2] is 0.02 nM.
